This passage reports IC50 and solubility results from publication PMC11574061, “Experimental and computational studies on possibility of using glucose diazacrown cryptand as a carrier for anticancer drugs busulfan and lomustine” (Scientific Reports, 2024).

In data set [1] the test system is normal breast epithelial cells MCF-10 A. The data set is described as follows: MTT cytotoxicity assay, MCF-10 A. The data set is classed as cell-based, human. Particulars: 72 h. The protocol:
(§1) Breast cancer cells MCF-7, colon cancer cells HT-29, normal breast epithelial cells MCF-10 A and normal colon fibroblasts CCD-18Co were used as a cell model for testing the effect of compounds on the viability of cells. The cells were seeded in Dulbecco’s Modified Eagle Medium (DMEM) medium in 96-well plates and incubated for 24 h in a 5% CO2 atmosphere at 37 °C. MCF-10 A cells were grown in a medium supplemented with 0.4% bovine pituitary extract (BPE), 3 ng ml^− 1 hEGF, 5 µg ml^− 1 insulin, 0.5 µg ml^− 1 hydrocortisone and 100ng mL^− 1 cholera toxin. After that, cells were treated with different concentrations: 2.5, 10, 25, 50, 100, and 200 µM, of compounds for 72 h. Busulfan and lomustine were freshly dissolved in DMSO immediately before cell treatment. The solution of other compounds (lyophilized) were prepared in 30% DMSO. Then, a series of dilutions were prepared. The final concentrations of drugs, cryptand and complexes were in range 2.5–200 µM. The final concentration of DMSO diluted in culture medium was 0.2% for all experiments. The controls (without drugs) were treated with 0.2% DMSO. In this concentration DMSO was not cytotoxic for cells which was confirmed by preliminary experiments. The viability of cells treated with the tested compounds was assessed by measuring the ability of live cells to metabolize 3-(4,5-dimethylthiazolo-2-yl)-2,5-diphenyl tetrazolium bromide (MTT) to formazan, using a standard protocol. Briefly, after incubation with compounds, the medium of each well was discarded, cells were washed with PBS, and then 100 µL of fresh media with 10 µL MTT solution (5 mg mL^− 1 in PBS) was added to each well. After 4 h incubation at 37 °C, the produced formazan was solubilized by the addition of DMSO, and the absorbance of each well was determined at 570 nm using an ELISA reader. The results were expressed as the mean of at least four replicates as a percentage of control (taken as 100% - cells).
Background: Tetrazolium dyes change colour on reduction, which living cells bring about.

The test system of the next data set is colon cancer cells HT-29. The data set can be described thus: MTT cytotoxicity assay, HT-29. The class given is cell-based, human. The protocol:
as §1

Data set [2] concerns breast cancer cells MCF-7. The data set can be described thus: MTT cytotoxicity assay, MCF-7. The class given is cell-based, human. The protocol:
as §1

Data set [3] concerns normal colon fibroblasts CCD-18Co. The data set can be described thus: MTT cytotoxicity assay, CCD-18Co. The data set is classed as cell-based, human. Particulars: 72 h. The protocol: as §1
Data set [4] can be described thus: Approximate water solubility, stepwise addition of water. The class given is physicochemical. Conditions: thermodynamic from solid; in water; estimated approximately, 1 mg substance, water added in 0.1 ml portions until clear. The protocol: The complexes were prepared according to the procedure described in a previous publication for the complex of another cryptand with BSF[7]. A solution of 2.5 mg (0.01 mmol) BSF in 0.25 ml DMSO was added under argon to a solution of 9.8 mg (0.01 mmol) cryptand 9 (L1) in 12.5 ml water at room temperature. […] The water solubility of the pure cryptand L1, both drugs and their complexes was estimated approximately using a simple method. For each compound separately, 1 mg of the substance was placed in a vial and water was added to it in portions of 0.1 ml. After each addition, the mixture was stirred for 10 min, and the clarity of the solution was checked with a magnifying glass. Stirring was stopped when the solution became completely clear.

Where [5] appears, read: MCF-10 A normal breast cells, MTT, 2.5–200 µM, mean ± SD, – = IC50 not reached in the range used.
Where [6] appears, read: HT-29 colon cancer cells, 72 h, MTT, 2.5–200 µM, mean ± SD, – = IC50 not reached in the range used.
Where [7] appears, read: MCF-7 breast cancer cells, 72 h, MTT, 2.5–200 µM, mean ± SD, – = IC50 not reached in the range used.
Where [8] appears, read: CCD-18Co normal colon cells, MTT, 2.5–200 µM, mean ± SD, – = IC50 not reached in the range used.
[9] abbreviates: Homo sapiens, MCF-10A, read-out: IC50.
Where [10] appears, read: Homo sapiens, HT-29, 72 h, read-out: IC50.
[11] abbreviates: Homo sapiens, MCF7, 72 h, read-out: IC50.
[12] abbreviates: Homo sapiens, CCD-18Co, read-out: IC50.

≈ marks a conversion by molar mass, not a printed value. Read-outs that look alike come from different tables or passages of the source. Bounds are passed on as bounds.

On to `O=C1NCC2OC(NC(=O)N3CCOCCOCCN(CCOCCOCC3)C(=O)NC3OC(CNC(=O)N4CCOCCOCCN1CCOCCOCC4)C(O)C(O)C3O)C(O)C(O)C2O` (stereo not shown) [L1], for which the IC50 entry (in data set [1] (setting [5]); in the data set with colon cancer cells HT-29 (setting [6]); in data set [2] (setting [7]); in data set [3] (setting [8])) was “had not been reached” each time. Further, the solubility (usually the concentration that dissolves in the medium under given conditions) in data set [4] was 20000 µg/mL (≈ 20.3 mM).

For `CS(=O)(=O)OCCCCOS(C)(=O)=O` [BSF, butane-1,4-diyl dimethanesulfonate], the IC50 (usually the concentration that inhibits the measured activity by half) was above 200 µM in data set [1] (setting [9]); “not achieved” in data set [1] (setting [5]); “not achieved” in the data set with colon cancer cells HT-29 (setting [6]); above 200 µM in the data set with colon cancer cells HT-29 (setting [10]); above 200 µM in data set [2] (setting [11]); “not achieved” in data set [2] (setting [7]). Moreover, the IC50 result was “not achieved” in data set [3] (setting [8]) and above 200 µM in data set [3] (setting [12]). For the same compound, in data set [4], the solubility is 130 µg/mL.

For `O=NN(CCCl)C(=O)NC1CCCCC1` [CCNU, 1-(2-chloroethyl)-3-cyclohexyl-1-nitrosourea], the half-maximal inhibitory concentration (IC50) was 48.9 ± 5.4 µM in data set [1] (setting [9]), 8.91 ± 1.5 µM with colon cancer cells HT-29 (setting [10]), 8.41 ± 1.6 µM in data set [2] (setting [11]) and 56.2 ± 7.8 µM in data set [3] (setting [12]). The solubility in data set [4] was 50 µg/mL (≈ 0.214 mM).
